Values after ≈ are worked out from the molar mass of the structure shown.
Conditions: buffer; pH 7.4; 6.0 h; 150.0 µM

Row | SMILES | solubility kinetic [µg/mL]
1 | O=C(Nc1nc(-c2ccccc2)cs1)c1ccncc1NS(=O)(=O)c1ccc2c(c1)CCC2 | 5.8 (≈ 12.2 µM)
2 | CN(Cc1ccccc1)C(=O)C1CCN(Cc2cccc3ccccc23)CC1 | > 55
3 | CSc1cc2c(s1)c1cnn(Cc3cccc(N)c3)c(=O)c1n2C | < 1
4 | COCCn1ccc2c(C3=CCOCC3)nc(-c3cccc(NC(C)=O)c3)cc21 | > 87
5 | CCCCn1cnc2cc(NC(=O)c3cc(OC)c(OC)c(OC)c3)ccc21 | 48.1 (≈ 125 µM)
6 | COc1cccc(Cn2c(=O)n(-c3cccc(Cl)c3C)c(=O)c3c4c(sc32)CN(C(C)=O)CC4)c1 | < 1
7 | CC(=O)NCc1ccc(-c2csc(Nc3cc(C)cc(C)c3)n2)o1 | 1.14 (≈ 3.33 µM)
8 | CC(=O)Nc1ccc(C(=O)Nc2ccccc2N)cc1 | > 40
9 | COc1ccc(C2=Nc3ccc(Br)cc3C(c3ccccc3)N2CC(=O)NN)cc1 (stereo not given) | > 69
10 | O=C1CCCC2=C1C(c1ccncc1Cl)N=C(Nc1nc3ccccc3o1)N2 (stereo not given) | 8.82 (≈ 22.4 µM)
11 | Cc1cccc([C@H]2[C@@H]3C=CC[C@@H](C)[C@@H]3C(=O)N2Cc2ccccc2)c1 | < 1
12 | COc1cccc(N2CCN(c3ncc4c(n3)CCN(Cc3ccc(Br)cc3)C4)CC2)c1 | < 1
13 | Cc1cccc(-n2cnc3cc(C(=O)N4CCCCCC4)ccc32)c1 | 41.2 (≈ 124 µM)
14 | CC[C@H](Nc1ncnc2nc[nH]c12)c1nc2cccc(F)c2c(=O)n1-c1ccccc1 | > 61
15 | COc1ccc(O)c2c(=O)c3c(OC)cc4c(c3oc12)C1C=COC1O4 (stereo not given) | < 1
16 | Cc1ccc(CN2CCOC[C@H]2c2ncc(-c3cccc(F)c3)[nH]2)cc1 | 10.4 (≈ 29.7 µM)
17 | Cc1ccnc(NC(=S)N2CCN(c3cccc(Cl)c3Cl)CC2)c1 | 2.51 (≈ 6.58 µM)
18 | Fc1ccc(Nc2nc(Nc3ccncc3)nc3ccccc23)cc1F | 2.19 (≈ 6.25 µM)
19 | Clc1ccc(-c2nc(-c3ccc(Br)o3)no2)c(Cl)c1 | < 1
20 | CN1Cc2c(ccc3c2OCO3)[C@@H]2[C@H]1c1cc3c(cc1C[C@@H]2O)OCO3 | > 52
21 | CNc1nccc(-c2cccc3ccccc23)n1 | 4.49 (≈ 19.1 µM)
22 | Cc1ccc(-c2csc(N3CCC(C(N)=O)CC3)n2)cc1 | 32.9 (≈ 109 µM)
23 | Cc1nn(-c2ccccc2)c2nc(C3CC3)cc(C(=O)Nc3ccc(F)cc3)c12 | < 1
24 | CCOC(=O)C1CCN(C(=O)C(C)(C)NC(=O)Nc2ccc(-c3ccccc3)cc2)CC1 | 10.8 (≈ 24.6 µM)
25 | CCOC(=O)NNc1ccc(N(CC)CC(C)O)nn1 (stereo not given) | 4.72 (≈ 16.7 µM)

Row | SMILES | solubility kinetic [µg/mL]
26 | O=C(NCCc1ccccc1)C1CCN(c2nc(-c3ccc(Br)cc3)cs2)CC1 | 4.49 (≈ 9.54 µM)
27 | Cn1nnnc1Sc1ncnc2sc(-c3ccccc3)cc12 | 0.088 (≈ 0.27 µM)
28 | CC1=C(C(=O)Nc2nncs2)C(c2nn(C)cc2Cl)N=C(Nc2nc3ccccc3o2)N1 (stereo not given) | 16.3 (≈ 34.6 µM)
29 | O=C(Nc1cc(Cc2ccccc2)ccn1)c1ccc(-c2cccc([N+](=O)[O-])c2)o1 | < 1
30 | O=C1CCCC2=C1C(c1[nH]ncc1Cl)N=C(Nc1nc3ccc(F)cc3o1)N2 (stereo not given) | 1.53 (≈ 3.81 µM)
31 | COc1cc(NC(=O)c2nc3ccccc3n(C)c2=O)cc(OC)c1OC | 7.16 (≈ 19.4 µM)
32 | O=C1CCCC2=C1C1(CCCC1)N=C(Nc1nc3cc(Br)ccc3o1)N2 | < 1
33 | COc1cccc(C(=O)Nc2ccc3oc(-c4ccc5ccccc5c4)nc3c2)c1 | < 1
34 | N=c1c2c(ncn1-c1ccccc1)Oc1ccc3ccccc3c1C2c1ccc2c(c1)CCO2 (stereo not given) | 2 (≈ 4.5 µM)
35 | O=C(Nc1ccc(Cl)c(S(=O)(=O)N2CCOCC2)c1)c1ccc(S(=O)(=O)N2CCOCC2)cc1 | < 1
36 | CC1CN(c2ccc(Nc3nc(-c4ccncc4)nc4ccccc34)cc2F)CC(C)O1 (stereo not given) | < 1
37 | COc1ccccc1Nc1ccnc(N2CCN(C(=O)c3ccc(F)cc3)CC2)n1 | 10.8 (≈ 26.5 µM)
38 | COc1ccc(C(=O)NC2CCCc3c2[nH]c2ccccc32)cc1OC (stereo not given) | 4.79 (≈ 13.7 µM)
39 | COc1cccc(CNc2ccc(S(=O)(=O)Nc3nc4ccccc4o3)cc2)c1O | > 63
40 | O=S(=O)(Nc1nccs1)c1ccc(NCc2cccc(F)c2O)cc1 | > 56
41 | CN(C)c1cccc(-c2cnc(N3CCC(c4ncc[nH]4)CC3)s2)c1 | 32.7 (≈ 92.5 µM)
42 | O=C(c1cnc(N2CCCCC2)c2ccccc12)N1CCN(c2ccc(Cl)cc2)CC1 | < 1
43 | Clc1ccc(Nc2nc(-c3ccncc3)nc3ccccc23)cc1Cl | < 1
44 | COc1ccnc(NC(=S)N2CCN(c3ccc(Cl)c(Cl)c3)CC2)c1 | 3.16 (≈ 7.96 µM)
45 | N#Cc1ccc(C(=O)Nc2ccc(Cl)c(-c3nc4cc(Cl)ccc4o3)c2)c(F)c1 | < 1
46 | CN1CCN(C(=O)c2ccc3cc(CCNc4ncnc5ccc(C#N)cc45)ccc3c2)CC1 | 49.7 (≈ 110 µM)
47 | O=C(Nc1cccc(Cc2ccccc2)n1)c1ccc(-c2cccc([N+](=O)[O-])c2)o1 | 2.73 (≈ 6.84 µM)
48 | COc1ccc(C(=O)Nc2nc(-c3ccccc3)cs2)c(OC)c1 | < 1
49 | O=C(Nc1ccc(C(=O)Nc2nccs2)cc1)c1ccc2ccccc2c1 | < 1
50 | COc1ccnc(NC(=S)N2CCN(c3cc(C(F)(F)F)cc(C(F)(F)F)c3)CC2)c1 | 2.88 (≈ 6.21 µM)

Row | SMILES | solubility kinetic [µg/mL]
51 | Fc1ccc(Nc2nc(-c3ccncc3F)nc3ccccc23)cc1F | < 1
52 | CCOC(=O)[C@H]1O[C@@H]1C(=O)N[C@@H](CC(C)C)C(=O)NCCC(C)C | 24 (≈ 70.1 µM)
53 | CCN(CC)S(=O)(=O)c1cccc(C(=O)Nc2ccc(C#N)cc2)c1 | 10.2 (≈ 28.5 µM)
54 | Cc1ccc(-c2c(CN3CCN(c4cccc(C(F)(F)F)c4)CC3)csc2C)cc1 | < 1
55 | O=C(O)c1ccccc1C(=O)Nc1ccc(-c2ccccc2)cc1 | > 47
56 | NC(=O)C1CCN(c2ncc(-c3ccc4c(c3)OCO4)s2)CC1 | 5.31 (≈ 16 µM)
57 | O=[S+]([O-])(Nc1ccc(C2CCNCC2)cc1)c1ccc(NCc2ccc(Cl)cc2O)cc1 | 23.9 (≈ 50.6 µM)
58 | CCOc1ccc(NC(=O)c2nc(S(=O)(=O)Cc3ccccc3F)ncc2Cl)cc1 | < 1
59 | CCOC(=O)c1[nH]c(C)c(CCC(=O)N2CCN(c3cccc(C)c3C)CC2)c1C | < 1
60 | CCN1C(=O)c2ccccc2[S@](=O)c2ccc(C(=O)N[C@H](C)c3ccc4ccccc4c3)cc21 | < 1
61 | CNc1nc(C#N)c(-c2cccc3ccccc23)o1 | < 1
62 | CN(C)CCNC(=O)c1nc2nc(-c3ccccc3)c(-c3cccc(Cl)c3)cc2n1C | 66.8 (≈ 154 µM)
63 | NC(=O)NCC(=O)N[C@H]1CC[C@H](Nc2nccc(-c3ccncc3)n2)C1 | > 35
64 | CCOc1ccc(CCNC(=O)c2ccnn2Cc2ccccn2)cc1OCC | > 58
65 | Cc1ccc(-c2cc(C(=O)Nc3ccc(S(C)(=O)=O)cc3)c3ccccc3n2)cc1C | < 1
66 | COc1ccc(Nc2cc(C)nc(-n3nc(C)cc3C)n2)cc1Cl | 3.58 (≈ 10.4 µM)
67 | CC(C)c1nc2oc3c(NCCN(C)C)ncnc3c2c2c1COC(C)(C)C2 | > 57
68 | O=C(NCc1ccc(S(=O)(=O)c2cccc(C(F)(F)F)c2)cc1)c1cnc2[nH]ncc2c1 | 5.88 (≈ 12.8 µM)
69 | Nc1nc2c(s1)C(c1cc(Cl)ccc1F)CC(=O)N2 (stereo not given) | 3.78 (≈ 12.7 µM)
70 | Cc1ccc(S(=O)(=O)Nc2ccccc2C(=O)Nc2ncc(-c3ccccc3)s2)cc1 | < 1
71 | Cn1ccc2c(C(=O)NCc3cccnc3)nc(-c3ccccc3C#N)cc21 | < 1
72 | CC(C)(C)OC(=O)N1CCN(c2ccc(NCc3ccc(-c4ccc(C#N)cc4)o3)cc2)CC1 | 9.31 (≈ 20.3 µM)
73 | COc1cc(-c2cn(C)c(=O)c3cnccc23)c(OC)cc1CN(C)C | > 52
74 | Oc1ccc(CNc2ccccc2C(F)(F)F)c2cccnc12 | 1.23 (≈ 3.85 µM)
75 | C[C@]12CC[C@@H]3[C@H](CCC4=CC(=O)CC[C@]43C)[C@]1(O)CC[C@@]2(O)C(=O)CO | > 54

Row | SMILES | solubility kinetic [µg/mL]
76 | CCOc1ccccc1N(CC(=O)N1CCOCC1)S(=O)(=O)c1ccc(SC)cc1 | > 67
77 | CCOC(=O)c1ccc(NC2CCCCC2)c(N)c1 | 31 (≈ 118 µM)
78 | COc1ccccc1-c1nnc2sc(-c3ccc(N(C)C)cc3)nn12 | 1.04 (≈ 2.96 µM)
79 | Cc1nn(CCc2nc(-c3ccc4ccccc4c3)cs2)c2[nH]c(=O)cc(C(F)(F)F)c12 | < 1
80 | O=C(NCCCCc1ccccc1)C1CCN(c2nc(-c3ccc(Br)cc3)cs2)CC1 | 7.06 (≈ 14.2 µM)
81 | COc1cccc(-c2cn3c(n2)sc2cc(C(=O)NCCc4ccc(OC)c(OC)c4)ccc23)c1 | < 1
82 | NC(=O)C1CCN(c2nc(-c3ccc(C(F)(F)F)cc3)cs2)CC1 | 1.98 (≈ 5.56 µM)
83 | Cc1cccc(CS(=O)(=O)c2ncc(Cl)c(C(=O)Nc3nc4ccc(F)cc4s3)n2)c1 | < 1
84 | COc1cccc(OC)c1C(=O)Nc1ccccc1C(=O)Nc1cccc(C(F)(F)F)c1 | < 1
85 | CCOc1ccc(CCNC(=O)c2cc3sccc3n2C(C)C)cc1OCC | 1.62 (≈ 4.05 µM)
86 | O=C1Nc2cc(Cl)ccc2Nc2cscc21 | 9.92 (≈ 39.6 µM)
87 | CCOc1ccc(C2C(C(=O)Nc3ccccc3OC)=C(C)Nc3c(C(=O)Nc4cccc(C)c4)cnn32)cc1 (stereo not given) | < 1
88 | Fc1cccc(-c2ccc(Nc3nc(-c4ccncc4)nc4ccccc34)cc2F)c1 | < 1
89 | NC(=O)C1CCN(c2ncc(Br)s2)CC1 | 32.3 (≈ 111 µM)
90 | CC(C)C[C@H]1C(=O)N2CCC[C@H]2[C@]2(O)O[C@](NC(=O)[C@@H]3C=C4c5cccc6[nH]c(Br)c(c56)C[C@H]4N(C)C3)(C(C)C)C(=O)N12 | < 1
91 | Cc1nnc(-c2ccccc2C(C)C)nc1NCc1ccc(-c2cccnc2)cc1 | < 1
92 | Cc1ccnc(NC(=S)N2CCN(c3cccc(C(F)(F)F)c3)CC2)c1 | 9.68 (≈ 25.4 µM)
93 | Cc1noc(C)c1-c1ccc(-c2cc(C(N)=O)c(NC(N)=O)s2)c(O[C@H]2CCNC2)c1 | 38.5 (≈ 87.3 µM)
94 | Cc1ccc(S(=O)(=O)Nc2cc(Cl)c(Cl)cc2C(=O)Nc2nc(-c3ccccc3)cs2)cc1 | < 1
95 | Cc1cccc(-n2cnc3cc(C(=O)N4CCCC(C(F)(F)F)C4)ccc32)c1 (stereo not given) | 45.3 (≈ 117 µM)
96 | Cc1ccnc(NC(=S)N2CCCC(Nc3cccc(C(F)(F)F)c3)C2)c1 (stereo not given) | 11.6 (≈ 29.5 µM)
97 | Fc1ccc(Nc2nc(C3=CCNCC3)nc3ccccc23)cc1F | > 50
98 | NC(=O)Nc1cc(-c2ccc(CN3CCOCC3)cc2)sc1C(N)=O | 14.3 (≈ 39.6 µM)
99 | COc1ncc(-c2ccc3c(Nc4cc(Oc5cc(F)cc(F)c5)cc(C(=O)O)c4)c(S(=O)(=O)NC4CC4)cnc3c2)c(OC)n1 | 21.5 (≈ 33.1 µM)
100 | Oc1ccc(CNc2ccccc2F)c2cccnc12 | 4.4 (≈ 16.4 µM)

From PubChem BioAssay AID1645848
